Reference: patent US20250326785A1, “SODIUM SALT AND ETHANOLAMINE SALT OF 23-HYDROXYTORMENTIC ACID” (HUYABIO International, LLC, priority 2024, published 2025)
Read-outs that look alike come from different tables or passages of the source.

Tests used:
[1] = Stability study at 25° C./60% RH, 40° C./75% RH and 60° C. (XRPD, HPLC purity, impurity tracking); conditions: for XRPD: * = crystalline salt; for HPLC: based on free acid
Excerpt: Stability of HBI-3808 Sodium Salt Pattern 2 was studied over 13 weeks.
Table 2F presents impurity tracking results from a 13-week stability study of HBI-3808 sodium salt of Pattern 2. […]

[2] = Dynamic vapor sorption (DVS) analysis; type: physicochemical
Protocol: GC analysis indicated residual solvent contents of 2847 ppm methanol; and 27 ppm TBME. […] No residual methanol or TBME was detected due to signal over-lap. […] TG-DSC analysis indicated two weight losses. The first weight loss of 2.3 wt. % was observed between 20-170° C. […] In the DSC thermogram, three endothermic events were observed (FIG. 17I). […] FT-IR (FIG. 17J) and Raman spectra (FIG. 17K) were recorded for reference. […] XRPD pattern of the ethanolamine salt was retained post-DVS (FIG. 17N). […] However, at the end of the experiment the solids on the microscope slide had discolored (FIG. 17O).

[3] = for HPLC Conc.: 24 h, starting concentration 100 mg/mL; for HPLC Conc. / HPLC Conc./: based on free acid
Excerpt: pH-dependent solubility of the HBI- 3808 sodium salt of Pattern 2 was studied.
pH dependent solubility of the HBI- 3808 sodium salt of Pattern 5 was studied.

[4] = Varying humidity (VH)-XRPD; type: physicochemical; conditions: 0-90% RH
Protocol: During the sorption phase, sodium salt Pattern 2 was observed between 40-60% RH. […] A mixture of sodium salt Pattern 2 and 5 was also observed at 80% RH. […] During the second desorption, from 90% RH to 40% RH, sodium salt Pattern 5 was maintained.
VH-XRPD analysis was carried out between 40-0% RH (FIG. 5L).

C[C@@H]1CC[C@]2(C(=O)O)CC[C@]3(C)C(=CC[C@@H]4[C@@]5(C)C[C@@H](O)[C@H](O)[C@@](C)(CO)[C@@H]5CC[C@]43C)[C@@H]2[C@]1(C)O.NCCO [ethanolamine salt of HBI-3808, ETHANOLAMINE SALT OF 23-HYDROXYTORMENTIC ACID]
Total Impurities ([1]; 40° C./75% RH, 8 weeks): 3.12 % area | RRT 1.000 (HBI-3808) ([1]; 40° C./75% RH, 13 weeks): 97.41 % area | RRT 1.025 (Isomer of HBI-3808) ([1]; 40° C./75% RH, 13 weeks): 2.40 % area | RRT 1.935 impurity ([1]; 40° C./75% RH, 13 weeks): 0.20 % area | Total Impurities ([1]; 40° C./75% RH, 13 weeks): 2.59 % area | RRT 1.000 (HBI-3808) ([1]; 40° C./75% RH, T = 0): 97.82 % area | RRT 1.025 (Isomer of HBI-3808) ([1]; 40° C./75% RH, T = 0): 2.18 % area | Total Impurities ([1]; 40° C./75% RH, T = 0): 2.18 % area | HPLC/ % area ([1]; 60° C. (closed vial), 13 Weeks): 97.4 % area | XRPD ([1]; 60° C. (closed vial), 1 Week): 1* | HPLC ([1]; 60° C. (closed vial), 1 Week): 97.5 % area | XRPD ([1]; 60° C. (closed vial), 2 Weeks): 1* | HPLC ([1]; 60° C. (closed vial), 2 Weeks): 97.3 % area | XRPD ([1]; 60° C. (closed vial), 4 Weeks): 1* | HPLC ([1]; 60° C. (closed vial), 4 Weeks): 97.5 % area | XRPD ([1]; 60° C. (closed vial), 8 Weeks): 1* | HPLC ([1]; 60° C. (closed vial), 8 Weeks): 97.0 % area | XRPD ([1]; 60° C. (closed vial), 13 Weeks): 1* | HPLC ([1]; 60° C. (closed vial), 13 Weeks): 97.4 % area | RRT 0.801 impurity ([1]; 60° C., 1 week): 0.12 % area | RRT 1.000 (HBI-3808) ([1]; 60° C., 1 week): 97.46 % area | RRT 1.025 (Isomer of HBI-3808) ([1]; 60° C., 1 week): 2.43 % area | Total Impurities ([1]; 60° C., 1 week): 2.54 % area | RRT 0.970 impurity ([1]; 60° C., 2 weeks): 0.12 % area | RRT 1.000 (HBI-3808) ([1]; 60° C., 2 weeks): 97.27 % area | RRT 1.025 (Isomer of HBI-3808) ([1]; 60° C., 2 weeks): 2.41 % area | RRT 1.935 impurity ([1]; 60° C., 2 weeks): 0.20 % area | Total Impurities ([1]; 60° C., 2 weeks): 2.73 % area | RRT 0.970 impurity ([1]; 60° C., 4 weeks): 0.11 % area | RRT 1.000 (HBI-3808) ([1]; 60° C., 4 weeks): 97.49 % area | RRT 1.025 (Isomer of HBI-3808) ([1]; 60° C., 4 weeks): 2.40 % area | Total Impurities ([1]; 60° C., 4 weeks): 2.51 % area | RRT 0.970 impurity ([1]; 60° C., 8 weeks): 0.12 % area | RRT 1.000 (HBI-3808) ([1]; 60° C., 8 weeks): 97.04 % area | RRT 1.025 (Isomer of HBI-3808) ([1]; 60° C., 8 weeks): 2.49 % area | RRT 1.767 impurity ([1]; 60° C., 8 weeks): 0.35 % area | Total Impurities ([1]; 60° C., 8 weeks): 2.96 % area | RRT 1.000 (HBI-3808) ([1]; 60° C., 13 weeks): 97.41 % area | RRT 1.025 (Isomer of HBI-3808) ([1]; 60° C., 13 weeks): 2.41 % area | RRT 1.935 impurity ([1]; 60° C., 13 weeks): 0.18 % area | Total Impurities ([1]; 60° C., 13 weeks): 2.59 % area | RRT 1.000 (HBI-3808) ([1]; 60° C., T = 0): 97.82 % area | RRT 1.025 (Isomer of HBI-3808) ([1]; 60° C., T = 0): 2.18 % area | Total Impurities ([1]; 60° C., T = 0): 2.18 % area | input purity by HPLC ([1]; input material of the stability study (baseline)): 97.5 % area | XRPD of recovered material post-DVS [2]: retained | water (mass) uptake ([2]; at 80% RH/25° C. (Pattern 2: second DVS cycle)): 3.0 wt. % | hygroscopicity ([2]; from water uptake at 80% RH, 25° C.): slightly hygroscopic | XRPD of recovered solids ([3]; FaSSGF): consistent with ethanolamine salt | final Measured pH ([3]; FaSSGF): 8.62 | HPLC Conc. ([3]; FaSSGF, final pH 8.62): 57.2 mg/mL | XRPD pattern of recovered solids ([3]; FaSSGF, *** = crystalline salt): 1*** | HPLC Conc./ ([3]; FaSSGF): 57.2 mg/mL | concentration ([3]; pH 1.2): < 1000 ng/mL | XRPD of recovered solids ([3]; target pH 1.2): Amorphous solids | HPLC Conc. ([3]; target pH 1.2 buffer): <0.001 mg/mL | XRPD of recovered solids ([3]; target pH 3.0): consistent with HBI-3808 free acid of Pattern 1 | HPLC Conc. ([3]; target pH 3.0 buffer): <0.001 mg/mL | XRPD pattern of recovered solids ([3]; target pH 3.0 buffer, ** = free acid): 1** | XRPD of recovered solids ([3]; target pH 4.0): consistent with HBI-3808 free acid of Pattern 1 | HPLC Conc. ([3]; target pH 4.0 buffer): <0.001 mg/mL | XRPD pattern of recovered solids ([3]; target pH 4.0 buffer, ** = free acid): 1** | XRPD of recovered solids ([3]; target pH 6.8): Amorphous solids | HPLC Conc. ([3]; target pH 6.8 buffer): 0.5 mg/mL | HPLC Conc./ ([3]; target pH 6.8 phosphate buffer): 0.5 mg/mL | XRPD of recovered solids ([3]; target pH 8.0): Amorphous solids | HPLC Conc. ([3]; target pH 8.0 buffer): 17.7 mg/mL | HPLC Conc./ ([3]; target pH 8.0 phosphate buffer): 17.7 mg/mL | XRPD pattern / form stability over relative humidity [4]: no changes in XRPD Pattern
